Results on 30 compounds are retold here after EP2385948B1, “FUSED THIAZOLO AND OXAZOLO PYRIMIDINONES” (Torrent Pharmaceuticals Limited, priority 2009, dated 2011).

Counter-ions that a name gives are not always drawn. A value given as a limit tells only on which side of the number the result lay.

This data set relates to erythropoietin. The data set is described as follows: In vitro erythropoietin induction (ELISA of cell culture supernatant). To be noted: for fold induction at 200 µM: read-out: EPO fold induction, Hep3B cell line, 200 uM, 16 hours, relative to vehicle control; for EPO fold induction: Hep3B cell line, 200 uM, 16 hours, relative to vehicle control. For orientation: An ELISA detects its analyte on a solid surface through an enzyme-linked reagent.

Method: Hep3B cell line (ATCC HB8064) was employed. Induction of erythropoietin was carried out for the indicated dose of compounds for 16 hours duration. At the end of 16 hours, cell culture medium was collected and centrifuged to remove any debris. Supernatant obtained was analyzed for erythropoietin by ELISA (R&D systems, USA). The results were expressed as fold induction as compared to vehicle control.

On to `CC(C)(C)C1CCc2c(sc3nc(O)c(C(=O)NCCC(=O)O)c(=O)n23)C1` (stereo not drawn) [Compound 15, 3-[(7-tert-Butyl-2-hydroxy-4-oxo-5,6,7,8-tetrahydro-4H-9-thia-1,4a-diaza-fluorene-3-carbonyl)-amino]-propionic acid], for which the fold induction at 200 µM (Homo sapiens, Hep3B, 16 h) is < 2.
Same read-out and setting: with `O=C(O)CCNC(=O)c1c(O)nc2sc3c(n2c1=O)CCC3` [Compound 14, 3-[(2-Hydroxy-4-oxo-7,8-dihydro-4H,6H-cyclopenta[4,5]thiazolo[3,2-a]pyrimidine-3-carbonyl)-amino]-propionic acid] the figure was 2 to 4.
Same read-out and setting: then `CCCCc1ccc(C(=O)N2CCc3c(sc4nc(O)c(C(=O)NCC(=O)O)c(=O)n34)C2)cc1` [Compound 21, {[7-(4-Butyl-benzoyl)-2-hydroxy-4-oxo-5,6,7,8-tetrahydro-4H-9-thia-1,4a,7-triaza-fluorene-3-carbonyl]-amino}-acetic acid], with 9 to 16.
Turning to “{[7-(3,5-Dimethoxy-benzoyl)-2-hydroxy-4-oxo-5,6,7,8-tetrahydro-4H-9-thia-1,4a,7-triaza-fluorene-3-carbonyl]-amino}-acetic acid [Compound 41]”, the EPO fold induction entry is listed as “++ (++ indicates 2-4 fold)”.
For `CC1(C)CCc2c(sc3nc(O)c(C(=O)NCC(=O)O)c(=O)n23)C1` [Compound 80, [(2-Hydroxy-7,7-dimethyl-4-oxo-5,6,7,8-tetrahydro-4H-9-thia-1,4a-diaza-fluorene-3-carbonyl)-amino]-acetic acid, Disodium salt], the EPO fold induction entry (Disodium salt, 960 min) is reported as “++++ (++++ indicates 9-16fold)”.
For `C[C@@H](NC(=O)c1c(O)nc2sc3c(n2c1=O)CCC(C)(C)C3)C(=O)O` [Compound 44, 2-[(2-Hydroxy-7,7-dimethyl-4-oxo-5,6,7,8-tetrahydro-4H-9-thia-1,4a-diaza-fluorene-3-carbonyl)-amino]-propionic acid (D-isomer)], under “Homo sapiens, Hep3B, 16 h”, the fold induction at 200 µM was < 2.
Still for that read-out and setting: then `CC1(C)CCc2c(sc3nc(O)c(C(=O)N[C@H](C(=O)O)c4ccccc4)c(=O)n23)C1` [Compound 55, [(2-Hydroxy-7,7-dimethyl-4-oxo-5,6,7,8-tetrahydro-4H-9-thia-1,4a-diaza-fluorene-3-carbonyl)-amino]-phenyl-acetic acid, L-isomer], with < 2.
Still for that read-out and setting: with `O=C(O)CNC(=O)c1c(O)nc2sc3c(n2c1=O)CCC3` [Compound 11, [(2-Hydroxy-4-oxo-7,8-dihydro-4H,6H-cyclopenta[4,5]thiazolo[3,2-a]pyrimidine-3-carbonyl)-amino]-acetic acid] the figure was 5 to 8.
Take `CC(C)CC(=O)N1CCc2c(sc3nc(O)c(C(=O)NCC(=O)O)c(=O)n23)C1` [Compound 4, {[2-Hydroxy-7-(3-methyl-butyryl)-4-oxo-5,6,7,8-tetrahydro-4H-9-thia-1,4a,7-triaza-fluorene-3-carbonyl]-amino}-acetic acid]: the fold induction at 200 µM (Homo sapiens, Hep3B, 16 h) was in the range of 2 to 4.
Still for that read-out and setting: with `CC(C)[C@H](NC(=O)c1c(O)nc2sc3c(n2c1=O)CCC(C)(C)C3)C(=O)O` [Compound 43, 2-[(2-Hydroxy-7,7-dimethyl-4-oxo-5,6,7,8-tetrahydro-4H-9-thia-1,4a-diaza-fluorene-3-carbonyl)-amino]-3-methyl-butyric acid (L-isomer)] the figure was < 2; with `O=C(O)CNC(=O)c1c(O)nc2oc3c(n2c1=O)CCCC3` [Compound 57, [(2-Hydroxy-4-oxo-5,6,7,8-tetrahydro-4H-9-oxa-1,4a-diaza-fluorene-3-carbonyl)-amino]-acetic acid], < 2; with `CCOC(=O)N1CCc2c(sc3nc(O)c(C(=O)NCC(=O)O)c(=O)n23)C1` [Compound 2, 3-(Carboxymethyl-carbamoyl)-2-hydroxy-4-oxo-5,8-dihydro-4H,6H-9-thia-1,4a,7-triaza-fluorene-7-carboxylic acid ethyl ester], 5 to 8.
The same measure, in the same setting: with `O=C(O)CNC(=O)c1c(O)nc2sc3c(n2c1=O)CCOC3` [Compound 65, [(2-Hydroxy-4-oxo-5,8-dihydro-4H,6H-7-oxa-9-thia-1,4a-diaza-fluorene-3-carbonyl)-amino]-acetic acid] the figure was 5 to 8; with `O=C(O)CNC(=O)c1c(O)nc2sc3c(n2c1=O)CCN(C(=O)c1ccc(Cl)nc1)C3` [Compound 33, {[7-(6-Chloro-pyridine-3-carbonyl)-2-hydroxy-4-oxo-5,6,7,8-tetrahydro-4H-9-thia-1,4a,7-triaza-fluorene-3-carbonyl]-amino}-acetic acid], 2 to 4; with `CC(NC(=O)c1c(O)nc2sc3c(n2c1=O)CCC(C)(C)C3)C(=O)O` (stereo not drawn) [Compound 40, 2-[(2-Hydroxy-7,7-dimethyl-4-oxo-5,6,7,8-tetrahydro-4H-9-thia-1,4a-diaza-fluorene-3-carbonyl)-amino]-propionic acid], 5 to 8.
Same read-out and setting: with `CS(=O)(=O)N1CCc2c(sc3nc(O)c(C(=O)NCC(=O)O)c(=O)n23)C1` [Compound 3, [(2-Hydroxy-7-methanesulfonyl-4-oxo-5,6,7,8-tetrahydro-4H-9-thia-1,4a,7-triaza-fluorene-3-carbonyl)-amino]-acetic acid] the figure was 2 to 4; with `O=C(O)CNC(=O)c1c(O)nc2sc3c(n2c1=O)CCN(C(=O)OCc1ccccc1)C3` [Compound 26, 3-(Carboxymethyl-carbamoyl)-2-hydroxy-4-oxo-5,8-dihydro-4H,6H-9-thia-1,4a,7-triaza-fluorene-7-carboxylic acid benzyl ester], 9 to 16.
For `O=C(O)CNC(=O)c1c(O)nc2sc3c(n2c1=O)CCN(C(=O)c1ccc(F)cc1)C3` [Compound 16, {[7-(4-Fluoro-benzoyl)-2-hydroxy-4-oxo-5,6,7,8-tetrahydro-4H-9-thia-1,4a,7-triaza-fluorene-3-carbonyl]-amino}-acetic acid], the fold induction at 200 µM (Homo sapiens, Hep3B, 16 h) lay within 5 to 8.
With `O=C(O)CNC(=O)c1c(O)nc2sc3c(n2c1=O)CCN(Cc1cc(C(F)(F)F)cc(C(F)(F)F)c1)C3` [Compound 46, {[7-(3,5-Bis-trifluoromethyl-benzyl)-2-hydroxy-4-oxo-5,6,7,8-tetrahydro-4H-9-thia-1,4a,7-triaza-fluorene-3-carbonyl]-amino}-acetic acid], where the note is “Homo sapiens, Hep3B, 16 h, read-out: EPO fold induction, Hep3B cell line, 50 uM, 16 hours, relative to vehicle control”, the fold induction at 50 µM was 2 to 4.
Take `O=C(O)CNC(=O)c1c(O)nc2sc3c(n2c1=O)CCC(C(=O)O)C3` (stereo not drawn) [Compound 72, 3-(Carboxymethyl-carbamoyl)-2-hydroxy-4-oxo-5,6,7,8-tetrahydro-4H-9-thia-1,4a-diaza-fluorene-7-carboxylic acid]: the fold induction at 200 µM (Homo sapiens, Hep3B, 16 h) was < 2.
On to `CN(CC(=O)O)C(=O)c1c(O)nc2sc3c(n2c1=O)CCC(C)(C)C3` [Compound 61, [(2-Hydroxy-7,7-dimethyl-4-oxo-5,6,7,8-tetrahydro-4H-9-thia-1,4a-diaza-fluorene-3-carbonyl)-methyl-amino] -acetic acid], for which, under “Homo sapiens, Hep3B, 16 h”, the fold induction at 200 µM is < 2.
Same read-out and setting: then `O=C(O)CNC(=O)c1c(O)nc2sc3c(n2c1=O)CCC(NC(=O)c1ccccc1)C3` (stereo not drawn) [Compound 56, [(7-Benzoylamino-2-hydroxy-4-oxo-5,6,7,8-tetrahydro-4H-9-thia-1,4a-diaza-fluorene-3-carbonyl)-amino]-acetic acid], with < 2; and `COc1ccc(C(=O)N2CCc3c(sc4nc(O)c(C(=O)NCC(=O)O)c(=O)n34)C2)cc1Cl` [Compound 37, {[7-(3-Chloro-4-methoxy-benzoyl)-2-hydroxy-4-oxo-5,6,7,8-tetrahydro-4H-9-thia-1,4a,7-triaza-fluorene-3-carbonyl]-amino}-acetic acid], with 5 to 8.
Still for that read-out and setting: then `O=C(O)CNC(=O)c1c(O)nc2sc3c(n2c1=O)CCN(c1ccc(Cl)nn1)C3` [Compound 35, {[7-(6-Chloro-pyridazin-3-yl)-2-hydroxy-4-oxo-5,6,7,8-tetrahydro-4H-9-thia-1,4a,7-triaza-fluorene-3-carbonyl]-amino}-acetic acid], with < 2; and `CCC1(CC)CCc2c(sc3nc(O)c(C(=O)NCC(=O)O)c(=O)n23)C1` [Compound 53, [(7,7-Diethyl-2-hydroxy-4-oxo-5,6,7,8-tetrahydro-4H-9-thia-1,4a-diaza-fluorene-3-carbonyl)-amino]-acetic acid], with < 2; and `CCCC1CCc2c(sc3nc(O)c(C(=O)NCC(=O)O)c(=O)n23)C1` (stereo not drawn) [Compound 59, [(2-Hydroxy-4-oxo-7-propyl-5,6,7,8-tetrahydro-4H-9-thia-1,4a-diaza-fluorene-3-carbonyl)-amino]-acetic acid], with < 2.
The same measure, in the same setting: then `O=C(O)CNC(=O)c1c(O)nc2sc3c(n2c1=O)CCC(c1ccccc1)C3` (stereo not drawn) [Compound 64, [(2-Hydroxy-4-oxo-7-phenyl-5,6,7,8-tetrahydro-4H-9-thia-1,4a-diaza-fluorene-3-carbonyl)-amino]-acetic acid], with < 2.
As to `O=C(O)CNC(=O)c1c(O)nc2sc3c(n2c1=O)CCN(Cc1ccc2c(c1)CCC2)C3` [Compound 39, [(2-Hydroxy-7-indan-5-ylmethyl-4-oxo-5,6,7,8-tetrahydro-4H-9-thia-1,4a,7-triaza-fluorene-3-carbonyl)-amino]-acetic acid], the fold induction at 200 µM (Homo sapiens, Hep3B, 16 h) was 2 to 4.
On the same count and under the same terms, then `O=C(O)CNC(=O)c1c(O)nc2sc3c(n2c1=O)CCN(S(=O)(=O)c1ccc(OC(F)(F)F)cc1)C3` [Compound 19, {[2-Hydroxy-4-oxo-7-(4-trifluoromethoxy-benzenesulfonyl)-5,6,7,8-tetrahydro-4H-9-thia-1,4a,7-triaza-fluorene-3-carbonyl]-amino}-acetic acid], with 2 to 4; and `O=C(O)CNC(=O)c1c(O)nc2sc3c(n2c1=O)CCN(C(=O)C1CC1)C3` [Compound 9, [(7-Cyclopropanecarbonyl-2-hydroxy-4-oxo-5,6,7,8-tetrahydro-4H-9-thia-1,4a,7-triaza-fluorene-3-carbonyl)-amino]-acetic acid], with 5 to 8.
